Assay results from ChEMBL document CHEMBL5360577, “Multicomponent Petasis reaction for the identification of pyrazine based multi-target directed anti-Alzheimer's agents: In-silico design, synthesis, and characterization” (Eur J Med Chem, 2023).
Activity calls are given as the source filed them. The rule behind the calls is not given here.

Key:
[1] = target: T1, Acetylcholinesterase (Homo sapiens, UniProt P22303); assay: Inhibition of human AChE using acetylthiocholine as substrate at 10 uM by Ellman's method
T1 sequence (P22303 whole entry): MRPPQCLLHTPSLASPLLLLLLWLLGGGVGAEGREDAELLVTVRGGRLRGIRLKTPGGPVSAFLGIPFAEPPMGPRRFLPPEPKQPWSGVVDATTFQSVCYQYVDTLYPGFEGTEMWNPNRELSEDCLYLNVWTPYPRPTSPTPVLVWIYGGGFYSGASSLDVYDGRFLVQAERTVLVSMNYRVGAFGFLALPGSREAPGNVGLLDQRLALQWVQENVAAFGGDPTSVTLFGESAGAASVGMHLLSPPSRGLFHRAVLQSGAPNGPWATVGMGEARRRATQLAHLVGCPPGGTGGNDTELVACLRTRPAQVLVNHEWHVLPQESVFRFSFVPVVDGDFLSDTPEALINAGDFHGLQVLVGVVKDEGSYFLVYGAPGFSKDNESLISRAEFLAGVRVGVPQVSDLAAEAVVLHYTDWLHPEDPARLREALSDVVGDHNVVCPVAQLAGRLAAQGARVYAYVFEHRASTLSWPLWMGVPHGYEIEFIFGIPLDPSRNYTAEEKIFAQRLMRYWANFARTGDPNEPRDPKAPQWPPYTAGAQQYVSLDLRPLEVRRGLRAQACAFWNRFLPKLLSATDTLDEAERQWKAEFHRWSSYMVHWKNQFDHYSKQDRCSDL

[2] = target: T2, Microtubule-associated protein tau (Homo sapiens, UniProt P10636); assay: Inhibition of cellular tau (unknown origin) aggregation at 10 uM incubated for 2 hrs by FRET assay
T2 sequence (P10636 whole entry): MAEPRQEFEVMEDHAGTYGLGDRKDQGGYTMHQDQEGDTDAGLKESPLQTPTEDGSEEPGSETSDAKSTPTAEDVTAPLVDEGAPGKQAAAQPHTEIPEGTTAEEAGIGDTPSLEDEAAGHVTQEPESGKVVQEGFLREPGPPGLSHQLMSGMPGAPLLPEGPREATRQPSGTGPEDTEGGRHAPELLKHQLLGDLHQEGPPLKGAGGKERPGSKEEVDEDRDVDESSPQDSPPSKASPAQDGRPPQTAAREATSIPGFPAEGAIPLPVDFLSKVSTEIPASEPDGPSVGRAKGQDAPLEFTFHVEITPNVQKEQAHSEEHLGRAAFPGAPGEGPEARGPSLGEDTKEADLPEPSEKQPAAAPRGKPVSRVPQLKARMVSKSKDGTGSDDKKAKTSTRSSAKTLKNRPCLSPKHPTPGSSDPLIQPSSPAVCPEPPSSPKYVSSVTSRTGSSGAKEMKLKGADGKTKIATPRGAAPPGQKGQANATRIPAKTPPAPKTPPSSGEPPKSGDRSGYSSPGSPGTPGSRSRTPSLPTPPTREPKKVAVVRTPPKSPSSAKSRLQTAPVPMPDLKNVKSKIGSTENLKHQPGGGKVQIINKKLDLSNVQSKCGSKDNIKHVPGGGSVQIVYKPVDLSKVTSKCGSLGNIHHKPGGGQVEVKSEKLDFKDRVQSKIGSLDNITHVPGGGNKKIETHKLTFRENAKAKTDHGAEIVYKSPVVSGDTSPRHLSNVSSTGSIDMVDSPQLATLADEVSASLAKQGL

[3] = target: T2, Microtubule-associated protein tau; assay: Inhibition of cellular tau (unknown origin) aggregation incubated for 2 hrs by FRET assay
[4] = target: T1, Acetylcholinesterase; assay: Inhibition of human AChE using acetylthiocholine as substrate by Ellman's method
[5] = test system: SH-SY5Y; assay: Neuroprotective activity in human SH-SY5Y cell model transfected with wild-type tau assessed as cell viability at 1 to 10 uM by MTT assay; format: functional, cell-based; conditions: dose 1-10 µM
[6] = target: T2, Microtubule-associated protein tau; assay: Inhibition of tau (unknown origin) aggregation at 10 uM relative to control
[7] = target: Amyloid-beta precursor protein (Homo sapiens) (UniProt P05067); assay: Inhibition of amyloid beta (unknown origin) aggregation at 10 uM relative to control
Chain of Amyloid-beta precursor protein (Homo sapiens) (P05067 whole entry): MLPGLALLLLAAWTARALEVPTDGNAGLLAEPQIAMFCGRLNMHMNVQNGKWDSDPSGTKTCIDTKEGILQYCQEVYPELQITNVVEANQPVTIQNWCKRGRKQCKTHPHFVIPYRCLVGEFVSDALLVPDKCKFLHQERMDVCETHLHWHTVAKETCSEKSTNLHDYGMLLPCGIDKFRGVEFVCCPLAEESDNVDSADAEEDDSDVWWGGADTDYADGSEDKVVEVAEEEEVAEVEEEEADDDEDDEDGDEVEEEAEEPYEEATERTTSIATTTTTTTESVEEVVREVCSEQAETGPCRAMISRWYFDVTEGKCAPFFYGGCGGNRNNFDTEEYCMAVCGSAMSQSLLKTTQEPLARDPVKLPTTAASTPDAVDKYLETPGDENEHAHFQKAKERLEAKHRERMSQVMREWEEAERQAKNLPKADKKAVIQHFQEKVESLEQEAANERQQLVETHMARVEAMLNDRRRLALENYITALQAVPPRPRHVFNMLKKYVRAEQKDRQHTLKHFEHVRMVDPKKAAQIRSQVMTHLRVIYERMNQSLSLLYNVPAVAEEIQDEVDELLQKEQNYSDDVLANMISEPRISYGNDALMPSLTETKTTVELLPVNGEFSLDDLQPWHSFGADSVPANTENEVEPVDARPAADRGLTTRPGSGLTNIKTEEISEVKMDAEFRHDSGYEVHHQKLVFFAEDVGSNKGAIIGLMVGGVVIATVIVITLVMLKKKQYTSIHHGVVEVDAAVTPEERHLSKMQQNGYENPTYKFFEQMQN

[8] = target: Cholinesterase (Homo sapiens, UniProt P06276); assay: Inhibition of human BuChE by Ellman's method
Chain of Cholinesterase (P06276 whole entry): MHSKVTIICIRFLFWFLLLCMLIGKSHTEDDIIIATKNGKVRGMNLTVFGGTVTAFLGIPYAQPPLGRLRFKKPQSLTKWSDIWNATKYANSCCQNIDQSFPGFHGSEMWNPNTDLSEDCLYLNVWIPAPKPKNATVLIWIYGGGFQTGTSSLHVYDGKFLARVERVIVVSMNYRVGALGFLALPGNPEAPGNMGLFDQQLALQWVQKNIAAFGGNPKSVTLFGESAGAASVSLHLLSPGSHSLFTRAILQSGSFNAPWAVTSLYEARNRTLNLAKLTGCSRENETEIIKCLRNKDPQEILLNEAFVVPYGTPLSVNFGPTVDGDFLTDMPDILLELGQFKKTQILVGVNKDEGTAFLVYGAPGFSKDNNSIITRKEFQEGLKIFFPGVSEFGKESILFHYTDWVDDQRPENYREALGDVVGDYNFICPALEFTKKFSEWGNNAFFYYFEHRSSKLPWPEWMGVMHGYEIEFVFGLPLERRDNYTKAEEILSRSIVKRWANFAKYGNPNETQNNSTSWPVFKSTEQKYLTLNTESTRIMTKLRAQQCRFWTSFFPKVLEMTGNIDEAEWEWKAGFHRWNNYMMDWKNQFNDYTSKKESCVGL

[9] = target: T1, Acetylcholinesterase; assay: Inhibition of human AChE by Ellman's method
[10] = target: T3, Amine oxidase [flavin-containing] B (Homo sapiens, UniProt P27338); assay: Inhibition of human MAO-B by fluorometric assay
T3 sequence (P27338 whole entry): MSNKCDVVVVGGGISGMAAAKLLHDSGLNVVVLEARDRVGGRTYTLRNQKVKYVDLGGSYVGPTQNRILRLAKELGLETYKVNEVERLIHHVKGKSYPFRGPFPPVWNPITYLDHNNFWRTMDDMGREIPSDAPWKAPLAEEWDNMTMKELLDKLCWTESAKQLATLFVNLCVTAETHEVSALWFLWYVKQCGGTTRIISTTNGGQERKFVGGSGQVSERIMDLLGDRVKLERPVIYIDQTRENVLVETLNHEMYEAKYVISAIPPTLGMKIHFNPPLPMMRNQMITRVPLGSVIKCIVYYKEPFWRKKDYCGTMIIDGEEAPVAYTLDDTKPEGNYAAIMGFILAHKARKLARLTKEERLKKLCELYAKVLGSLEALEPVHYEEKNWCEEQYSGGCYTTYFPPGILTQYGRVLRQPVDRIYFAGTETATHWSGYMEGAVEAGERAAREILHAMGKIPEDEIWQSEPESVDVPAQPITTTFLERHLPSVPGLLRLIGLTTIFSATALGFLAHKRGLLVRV

[11] = target: T1, Acetylcholinesterase; assay: Inhibition of human AChE using acetylthiocholine as substrate at 10 uM by Ellman's method relative to control

Structure (SMILES)	inhibition [1]	inhibition [2]	EC50 [3] [nM]	IC50 [4] [nM]	Activity [5]	further results
COc1cccc(C(c2ccc(F)cc2)N2CCN(c3cnccn3)CC2)c1O (configuration not stated)	Active	Active	2210	710	Active	–
OC(CNCCC(c1ccccc1)c1ccccc1)CNCc1ccccc1 (configuration not stated)	–	–	–	–	–	inhibition [6]: 68%; inhibition [7]: 80%
Cc1cc(C)c(C(=O)/C=C/c2nc(C)c(C)nc2C)cc1C	–	–	–	–	–	IC50 [8]: 37600 nM; IC50 [9]: 2400 nM; IC50 [10]: 11200 nM
Cc1ccc(C(c2ccccc2O)N2CCN(c3cnccn3)CC2)cc1 (configuration not stated)	Active	Active	2710	1090	Active	–
Oc1ccccc1C(c1ccc(C(F)(F)F)cc1)N1CCN(c2cnccn2)CC1 (configuration not stated)	Active	–	–	–	–	inhibition [11]: < 40%
